The assay addresses GLP-1R (Homo sapiens, UniProt P43220). Briefly: Agonist activity on GLP-1R, HTRF cAMP detection in stably transfected GLP-1R/HEK293 cells. It is filed as cell-based. As to conditions: for EC50: 30 min incubation; for Max activity: relative to top concentration of reference GLP-1(7-37). On the procedure: Detection of Agonist Activity of the Test Compounds on GLP-1R
• 1) The test compound was dissolved in DMSO and diluted 4-fold with Bravo for a total of 10 concentration gradients (the starting concentration was 1 mM). […] HBSS (10 mL) pre-warmed at 37° C. was added, mixed gently, and centrifuged at 1000 rpm for 5 minutes. The supernatant was discarded and another 10 mL of […] was added and mixed gently. […] The plate was shaken to mix at 2000 rpm for 60 seconds. • 7) The cells in the 384-well plate were incubated in CO2 cell incubator at 37° C. for 30 min. • 8) 10 μL of HTRF cAMP detection solution was added to the 384-well plate, stick with sealing film, and incubated at room temperature for 1 hour. • 9) After 1 hour of incubation, the sealing film was removed. The plate was put into the EnVision microplate reader to read the values of OD665 nm and OD615 nm.

The EC50 is the concentration that produces a half-maximal response. A lower EC50 goes with greater potency.

GLP-1R, sequence (P43220 24-463): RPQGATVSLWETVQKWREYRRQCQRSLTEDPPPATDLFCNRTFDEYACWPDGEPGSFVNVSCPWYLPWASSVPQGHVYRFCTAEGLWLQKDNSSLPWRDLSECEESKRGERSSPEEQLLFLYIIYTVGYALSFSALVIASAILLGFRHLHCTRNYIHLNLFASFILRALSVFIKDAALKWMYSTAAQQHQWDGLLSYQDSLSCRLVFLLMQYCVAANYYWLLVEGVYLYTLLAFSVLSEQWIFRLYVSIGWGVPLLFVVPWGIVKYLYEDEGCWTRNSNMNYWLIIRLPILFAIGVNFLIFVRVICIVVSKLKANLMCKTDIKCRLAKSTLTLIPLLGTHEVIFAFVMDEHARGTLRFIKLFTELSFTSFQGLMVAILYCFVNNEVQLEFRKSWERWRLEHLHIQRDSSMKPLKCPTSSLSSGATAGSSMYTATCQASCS

Take `CCn1cncc1Cn1c(CN2CCC(Oc3cccc(COc4ccc(C#N)cc4F)n3)CC2)nc2ccc(C(=O)O)cc21` [Compound 1, 2-((4-((6-((4-cyano-2-fluorophenoxy)methyl)pyridin-2-yl)oxy)piperidin-1-yl)methyl)-1-((1-ethyl-1H-imidazol-5-yl)methyl)-1H-benzo[d]imidazole-6-carboxylic acid]: the half-maximal effective concentration (EC50) is 0.088 nM and the Max activity is listed as 116.8%.

On to `CCn1cncc1Cn1c(CN2CCC(Oc3cccc(COc4ccc(C#N)cc4F)n3)CC2)nc2c(F)cc(C(=O)O)cc21` [Compound 2, 2-((4-((6-((4-cyano-2-fluorophenoxy)methyl)pyridin-2-yl)oxy)piperidin-1-yl)methyl)-1-((1-ethyl-1H-imidazol-5-yl)methyl)-4-fluoro-1H-benzo[d]imidazole-6-carboxylic acid], for which it took 0.0529 nM to reach a half-maximal effect (EC50) and the Max activity is 98.6%.

On to `CCn1cncc1Cn1c(CN2CCC(Oc3ccc(F)c(COc4ccc(C#N)cc4F)n3)CC2)nc2ccc(C(=O)O)cc21` [Compound 3, 2-((4-((6-((4-cyano-2-fluorophenoxy)methyl)-5-fluoropyridin-2-yl)oxy)piperidin-1-yl)methyl)-1-((1-ethyl-1H-imidazol-5-yl)methyl)-1H benzo[d]imidazole-6-carboxylic acid], for which the response was half-maximal at 0.317 nM (EC50) and the Max activity was 128.3%.

With `CCn1cncc1Cn1c(CN2CCC(Oc3cccc(COc4ccc(C#N)cc4F)n3)CC2)nc2ccc(C(=O)O)nc21` [Compound 6, 2-((4-((6-((4-cyano-2-fluorophenoxy)methyl)pyridin-2-yl)oxy)piperidin-1-yl)methyl)-3-((1-ethyl-1H-imidazol-5-yl)methyl)-3H-imidazo[4,5-b]pyridine-5-carboxylic acid], the concentration giving a half-maximal response (EC50) turned out to be 0.133 nM and the Max activity is reported as 114.8%.

`CCn1cncc1Cn1c(CN2CCC(Oc3cccc(COc4ccc(Cl)cc4F)c3)CC2)nc2ccc(C(=O)O)cc21` [Compound 7, 2-((4-(3-((4-chloro-2-fluorophenoxy)methyl)phenoxy)piperidin-1-yl)methyl)-1-((1-ethyl-1H-imidazol-5-yl)methyl)-1H-benzo[d]imidazole-6-carboxylic acid]: the EC50 came out at 0.145 nM and the Max activity turned out to be 91.3%.

Consider `CCn1cncc1Cn1c(CN2CCC(Oc3cccc(COc4ccc(C#N)cc4F)c3)CC2)nc2ccc(C(=O)O)cc21` [Compound 13, 2-((4-(3-((4-cyano-2-fluorophenoxy)methyl)phenoxy)piperidin-1-yl)methyl)-1-((1-ethyl-1H-imidazol-5-yl)methyl)-1H-benzo[d]imidazole-6-carboxylic acid], for which the EC50 was 0.114 nM and the Max activity was 99.4%.

With `CCn1cncc1Cn1c(CN2CCC(Oc3cccc(COc4ccc(Cl)cc4F)n3)CC2)nc2ccc(C(=O)O)cc21` [Compound 43, 2-((4-((6-((4-chloro-2-fluorophenoxy)methyl)pyridin-2-yl)oxy)piperidin-1-yl)methyl)-1-((1-ethyl-1H-imidazol-5-yl)methyl)-1H-benzo[d]imidazole-6-carboxylic acid], the EC50 came out at 0.11 nM and the Max activity worked out at 109.7%.

With `N#Cc1ccc(OCc2cccc(OC3CCN(Cc4nc5ccc(C(=O)O)nc5n4C[C@@H]4CCO4)CC3)n2)c(F)c1` [Compound 60, (S)-2-((4-((6-((4-cyano-2-fluorophenoxy)methyl)pyridin-2-yl)oxy)piperidin-1-yl)methyl)-3-(oxetan-2-ylmethyl)-3H-imidazo[4,5-b]pyridine-5-carboxylic acid], the concentration giving a half-maximal response (EC50) was determined as 0.455 nM and the Max activity stood at 112.0%.

With `N#Cc1ccc(OCc2cccc(OC3CCN(Cc4nc5ccc(C(=O)O)cc5n4C[C@@H]4CCO4)CC3)c2)c(F)c1` [Compound 67, (S)-2-((4-(3-((4-cyano-2-fluorophenoxy)methyl)phenoxy)piperidin-1-yl)methyl)-1-(oxetan-2-ylmethyl)-1H-benzo[d]imidazole-6-carboxylic acid], the concentration for a half-maximal effect (EC50) was determined as 1.09 nM and the Max activity came to 106.4%.

Turning to `N#CCC1(Cn2c(CN3CCC(Oc4cccc(COc5ccc(C#N)cc5F)n4)CC3)nc3ccc(C(=O)O)cc32)CC1` [Compound 133, 2-((4-((6-((4-cyano-2-fluorophenoxy)methyl)pyridin-2-yl)oxy)piperidin-1-yl)methyl)-1-((1-(cyanomethyl)cyclopropyl)methyl)-1H-benzo[d]imidazole-6-carboxylic acid], the EC50 came to 0.264 nM and the Max activity came out at 126.6%.

Consider `N#CCC1(Cn2c(CN3CCC(Oc4cccc(COc5ccc(C#N)cc5F)n4)CC3)nc3c(F)cc(C(=O)O)cc32)CC1` [Compound 134, 2-((4-((6-((4-cyano-2-fluorophenoxy)methyl)pyridin-2-yl)oxy)piperidin-1-yl)methyl)-1-((1-(cyanomethyl)cyclopropyl)methyl)-4-fluoro-1H-benzimidazole-6-carboxylic acid], for which the EC50 is 0.133 nM and the Max activity was 117.3%.

In the case of `N#CCC1(Cn2c(CN3CCC(Oc4ccc(F)c(COc5ccc(C#N)cc5F)n4)CC3)nc3ccc(C(=O)O)cc32)CC1` [Compound 135, 2-((4-((6-((4-cyano-2-fluorophenoxy)methyl)-5-fluoropyridin-2-yl)oxy)piperidin-1-yl)methyl)-1-((1-(cyanomethyl)cyclopropyl)methyl)-1H-benzo[d]imidazole-6-carboxylic acid], a half-maximal effect (EC50) was put at 0.244 nM and the Max activity was 109.6%.

Take `N#CCC1(Cn2c(CN3CCC(Oc4cccc(COc5ccc(C#N)cc5F)n4)CC3)nc3ccc(C(=O)O)nc32)CC1` [Compound 138, 2-((4-((6-((4-cyano-2-fluorophenoxy)methyl)pyridin-2-yl)oxy)piperidin-1-yl)methyl)-3-((1-(cyanomethyl)cyclopropyl)methyl)-3H-imidazo[4,5-b]pyridine-5-carboxylic acid]: the response was half-maximal at 0.669 nM (EC50) and the Max activity is given as 125.0%.

As for `N#Cc1ccc(OCc2cccc(COC3CCN(Cc4nc5ccc(C(=O)O)cc5n4C[C@@H]4CCO4)CC3)n2)c(F)c1` [Compound C1, (S)-2-((4-((6-((4-cyano-2-fluorophenoxy)methyl)pyridin-2-yl)methoxy)piperidin-1-yl)methyl)-1-(oxetan-2-ylmethyl)-1H-benzo[d]imidazole-6-carboxylic acid], the half-maximal effective concentration (EC50) is 1190 nM and the Max activity is recorded as 76.6%.

Take `CCn1cncc1Cn1c(CN2CCC(Oc3cccc(OCc4ccc(C#N)cc4F)n3)CC2)nc2ccc(/C=C/C(=O)O)cc21` [Compound C2, (E)-3-(2-((4-((6-((4-cyano-2-fluorobenzyl)oxy)pyridin-2-yl)oxy)piperidin-1-yl)methyl)-1-((1-ethyl-1H-imidazol-5-yl)methyl)-1H-benzo[d]imidazol-6-yl)acrylic acid]: the EC50 was found to be 0.614 nM and the Max activity turned out to be 123.1%.

In the case of `CCn1cncc1Cn1c(CN2CCC(Oc3cccc(COc4ccc(Br)cc4F)n3)CC2)nc2ccc(C(=O)O)cc21` [Compound C3, 2-((4-((6-((4-bromo-2-fluorophenoxy)methyl)pyridin-2-yl)oxy)piperidin-1-yl)methyl)-1-((1-ethyl-1H-imidazol-5-yl)methyl)-1H-benzo[d]imidazole-6-carboxylic acid], the EC50 came out at 0.278 nM and the Max activity turned out to be 122.3%.
